Assay results reported in patent publication US20210386791A1, “METHODS OF CELLULAR REPROGRAMMING” (TissueTech, Inc., priority 2018, published 2021).

Tested on: human corneal fibroblasts (HCF)
Test: Time course of nuclear translocation (CD44-ICD, TAK1, JNK1, Cyclin D1, p75NTR) and CD44 immunoprecipitation in HCF treated with HC-HA/PTX3±TGFβ1±inhibitors
Format: cell-based
Details: HC-HA/PTX3+TGFβ1 with inhibitor 10 μM; for nuclear translocation of CD44-ICD at 5 min: immunostaining and Western blotting
Description: Human corneal fibroblasts (P3) were seeded on plastics with or without immobilized HC-HA/PTX3 complex for 72 h in DMEM+10% FBS, then serum starved for 24 h and treated with or without TGFβ1 for 24 h before being harvested for mRNA quantitation or immunostaining. For determination of protein of TGFβ receptor or p75NTR, the cells were treated with or without TGF-β1 for 48 h before collection of protein samples because the protein expression lags behind mRNA expression. For TGF-β1 ELISA, the cells were treated with or without TGF-β1 for 24 h, and then cultured in the fresh medium for another 24 h. The supernatants were collected for TGFβ1 ELISA. For TGFβ2 and TGFβ3 ELISA, the cells were treated with or without TGFβ1 for 48 h. Certain HCF were seeded on glass in DMEM+10% FBS for 24 h, then in DMEM+ITS (insulin-transferrin-selenium) for 24 h, treated with/without PBS or hyaluronic acid (HA) or HC-HA/PTX3±TGFβ1 (10 ng/ml)±Marimastat (10 μM) or ±DAPT (10 μM) or ±both for 0, 5, 15, 30 and 45 minutes before being harvested for immunostaining of CD44-ICD, JNK1, Cyclin D1 and p75NTR and for 5 minutes before being harvested for Western blotting of cytoplasmic and nuclear CD44-ICD, active MT1-MMP, and active γ-secretase after compartmental separation of the cellular components.
HCF, induced human corneal endothelial cells (HCEC), and HCEC monolayer cultures were air-dried and fixed in 4% formaldehyde, pH 7.0, for 15 min at room temperature, rehydrated in PBS, incubated with 0.2% Triton X-100 for 15 min, and rinsed three times with PBS for 5 min each. After incubation with 2% BSA to block non-specific staining for 30 min, they were incubated with the desired first antibody (all at 1:50 dilution) for 16 h at 4° C. After three washes with PBS, they were incubated with corresponding Alexa-Fluor-conjugated secondary IgG (all 1:100 dilutions) for 60 min. The samples were then counterstained with Hoechst 33342 and analyzed with Zeiss LSM 700 confocal microscope (Thornhood, N.Y.). Corresponding mouse and rabbit sera were used as negative controls for primary monoclonal and polyclonal antibodies, respectively.
The native CD44 protein was immune-precipitated by Immunoprecipitation Kit (Abcam, ab206996) with CD44 antibody (Abcam, ab157107) following the vendor's instructions.
Cell lysates were prepared in radioimmunoprecipitation assay (RIPA) buffer or non-denature lysis buffer and resolved on 4-15% (w/v) gradient acrylamide gels for Western blotting. […] Immunoreactive proteins were detected with Western Lighting Chemiluminesence.

| SMILES | nuclear translocation of TAK1, JNK1, Cyclin D1 and p75NTR at later time points | nuclear translocation of CD44-ICD at 5 min |
| --- | --- | --- |
| C[C@H](NC(=O)Cc1cc(F)cc(F)c1)C(=O)N[C@H](C(=O)OC(C)(C)C)c1ccccc1 [DAPT] | inhibited | inhibited |
| CNC(=O)[C@@H](NC(=O)[C@H](CC(C)C)[C@H](O)C(=O)NO)C(C)(C)C [Marimastat] | inhibited | inhibited |
